Results taken from patent US20250041298A1, “CDK4 INHIBITOR FOR THE TREATMENT OF CANCER” (Pfizer Inc., priority 2021, published 2025).
Several values for one entry are separate records, joined by “and”; a condition that tells them apart may be missing. Equal entries are not always repeated. Where two headings read alike, the source gives them in different places.

Columns and labels:
[1] = Phase 1/1b clinical trial: plasma pharmacokinetics of PF-07220060; format: in vivo, human; conditions: human, plasma; for Cmax / Tmax / AUC / half-life: po; for half-life: arithmetic mean
Procedure: Oral PF-07220060 was administered with at least 8 oz (240 mL) of water on an empty stomach (except during the food effect evaluation on Day-7 in Part 1D). No food or liquids other than water was consumed for 2 hours before and 1 hour following each dose throughout the study for BID dosing. No food or liquids other than water was consumed for 2 hours before and 2 hours after each dose throughout the study for QD dosing.
In the ongoing Phase 1/1b Study, as of Aug. 30, 2022, preliminary PK data for PF-07220060 as monotherapy (Part 1A) and in combination with endocrine therapy (Part 1B and Part 1C) was available from 60 participants with advanced solid tumors. PF-07220060 was administered orally as a single agent at doses ranging from 100 to 500 mg BID, and in combination with either letrozole or fulvestrant at 300 to 400 mg BID. Available plasma concentration-time data of PF-07220060 were analyzed using noncompartmental methods.
Preliminary noncompartmental PK analysis was conducted based on available samples collected from participants in the Study. […] Table 4 presents the summary of PK parameters for PF-07220060 as monotherapy, and in combination with letrozole or fulvestrant.

[2] = system: HR+, HER2+ BT474 breast cancer spheroids; experiment: Multicellular tumor spheroid growth inhibition (SGI), BT474; format: cell-based, human
Procedure: The purpose of this example was to evaluate the combination effect of PF-07220060 and endocrine therapy in multicellular tumor spheroid growth inhibition (SGI). To model the characteristics and cellular behavior of human tumors, the activity of PF-07220060 was evaluated in three dimensional MCTS models of HR+ breast cancer and AR+ prostate cancer following PF-07220060 treatment as a single agent and in combination with fulvestrant • 1) in HR+, HER2-T47D breast cancer spheroids. • 2) in HR+, HER2+BT474 breast cancer spheroids, • 3) in BT474 spheroids, and • 4) in AR+ prostate carcinoma cell line (LNCaP) prostate cancer spheroids. Spheroids were treated with increasing concentrations of 100, 300, or 1000 nM PF-07220060 and compared to palbociclib at the clinically relevant concentration of 30 nM. Single agent PF-07220060 inhibited spheroid growth in a dose-dependent manner, with highest efficacy (86% SGI over the duration of treatment with 1000 nM) shown in the T47D BC spheroid model (Table 1). Combining 100 nM PF-07220060 with 1 nM fulvestrant in T47D cells increased SGI to 96% compared to either single agent alone (57 to 67% SGI with 100 nM PF-07220060 or 79% SGI with fulvestrant) (Table 1). BT474 spheroids were relatively less sensitive to PF-07220060 resulting in 52% SGI at 1000 nM.

[3] = system: AR+ prostate carcinoma cell line (LNCaP) prostate cancer spheroids; experiment: Multicellular tumor spheroid growth inhibition (SGI), LNCaP; format: cell-based, human
Procedure: The purpose of this example was to evaluate the combination effect of PF-07220060 and endocrine therapy in multicellular tumor spheroid growth inhibition (SGI). To model the characteristics and cellular behavior of human tumors, the activity of PF-07220060 was evaluated in three dimensional MCTS models of HR+ breast cancer and AR+ prostate cancer following PF-07220060 treatment as a single agent and in combination with fulvestrant • 1) in HR+, HER2-T47D breast cancer spheroids. • 2) in HR+, HER2+BT474 breast cancer spheroids, • 3) in BT474 spheroids, and • 4) in AR+ prostate carcinoma cell line (LNCaP) prostate cancer spheroids. Spheroids were treated with increasing concentrations of 100, 300, or 1000 nM PF-07220060 and compared to palbociclib at the clinically relevant concentration of 30 nM.

CC(C)n1c(C(C)(C)O)nc2c(F)cc(-c3nc(N[C@@H]4CCOC[C@H]4O)ncc3Cl)cc21 [PF-07220060, 1,5-anhydro-3-({5-chloro-4-[4-fluoro-2-(2-hydroxypropan-2-yl)-1-(propan-2-yl)-1H-benzimidazol-6-yl]pyrimidin-2-yl}amino)-2,3-dideoxy-D-threo-pentitol]
Cmax ([1]; 300 mg BID oral + letrozole (Part 1B), C1D15 post multiple doses, geometric mean): 1520 ng/mL | Tmax ([1]; 300 mg BID oral + letrozole (Part 1B), C1D15 post multiple doses, median, read-out: Tmax): 1 h | Cmax ([1]; 300 mg, 300 mg BID oral monotherapy (Part 1A), C1D1 post first dose, geometric mean): 741 ng/mL | AUC ([1]; 300 mg, 300 mg BID oral monotherapy (Part 1A), C1D1 post first dose, geometric mean, read-out: AUC12): 4560 ng·h/mL | Tmax ([1]; 300 mg, 300 mg BID oral monotherapy (Part 1A), C1D1 post first dose, median, read-out: Tmax): 3.8 h | AUC ([1]; 300 mg, 300 mg BID oral monotherapy (Part 1A), C1D15, geometric mean, read-out: AUCtau): 8100 ng·h/mL | Cmax ([1]; 300 mg, 300 mg BID oral monotherapy (Part 1A), C1D15 post multiple doses, geometric mean): 1170 ng/mL | Tmax ([1]; 300 mg, 300 mg BID oral monotherapy (Part 1A), C1D15 post multiple doses, median, read-out: Tmax): 2.1 h | Cmax ([1]; 400 mg BID oral + fulvestrant (Part 1C), C1D1 post first dose, geometric mean): 730 ng/mL | AUC ([1]; 400 mg BID oral + fulvestrant (Part 1C), C1D1 post first dose, geometric mean, read-out: AUC12): 4840 ng·h/mL | Tmax ([1]; 400 mg BID oral + fulvestrant (Part 1C), C1D1 post first dose, median, read-out: Tmax): 2.2 h | half-life ([1]; 400 mg BID oral + fulvestrant (Part 1C), C1D15): 6.6 h | Cmax ([1]; 400 mg BID oral + letrozole (Part 1B), C1D1 post first dose, geometric mean): 950 ng/mL | AUC ([1]; 400 mg BID oral + letrozole (Part 1B), C1D1 post first dose, geometric mean, read-out: AUC12): 7110 ng·h/mL | Tmax ([1]; 400 mg BID oral + letrozole (Part 1B), C1D1 post first dose, median, read-out: Tmax): 2.2 h | AUC ([1]; 400 mg BID oral + letrozole (Part 1B), C1D15, geometric mean, read-out: AUCtau): 11500 ng·h/mL | Cmax ([1]; 400 mg BID oral + letrozole (Part 1B), C1D15 post multiple doses, geometric mean): 1420 ng/mL | Tmax ([1]; 400 mg BID oral + letrozole (Part 1B), C1D15 post multiple doses, median, read-out: Tmax): 1.6 h | AUC ([1]; 400 mg BID, 400 mg BID oral + fulvestrant (Part 1C), C1D15, geometric mean, read-out: AUCtau): 9560 ng·h/mL | Cmax ([1]; 400 mg BID, 400 mg BID oral + fulvestrant (Part 1C), C1D15 post multiple doses, geometric mean): 1380 ng/mL | Tmax ([1]; 400 mg BID, 400 mg BID oral + fulvestrant (Part 1C), C1D15 post multiple doses, median, read-out: Tmax): 1.1 h | Cmax ([1]; 400 mg, 400 mg BID oral monotherapy (Part 1A), C1D1 post first dose, geometric mean): 766 ng/mL | AUC ([1]; 400 mg, 400 mg BID oral monotherapy (Part 1A), C1D1 post first dose, geometric mean, read-out: AUC12): 5110 ng·h/mL | Tmax ([1]; 400 mg, 400 mg BID oral monotherapy (Part 1A), C1D1 post first dose, median, read-out: Tmax): 2.1 h | half-life ([1]; 400 mg, 400 mg BID oral monotherapy (Part 1A), C1D15, n = 2): 6.6 h | AUC ([1]; 400 mg, 400 mg BID oral monotherapy (Part 1A), C1D15, geometric mean, read-out: AUCtau): 8000 ng·h/mL | Cmax ([1]; 400 mg, 400 mg BID oral monotherapy (Part 1A), C1D15 post multiple doses, geometric mean): 949 ng/mL | Tmax ([1]; 400 mg, 400 mg BID oral monotherapy (Part 1A), C1D15 post multiple doses, median, read-out: Tmax): 1 h | Cmax ([1]; 500 mg, 500 mg BID oral monotherapy (Part 1A), C1D1 post first dose, geometric mean): 637 ng/mL | AUC ([1]; 500 mg, 500 mg BID oral monotherapy (Part 1A), C1D1 post first dose, geometric mean, read-out: AUC12): 4170 ng·h/mL | Tmax ([1]; 500 mg, 500 mg BID oral monotherapy (Part 1A), C1D1 post first dose, median, read-out: Tmax): 1.9 h | AUC ([1]; 500 mg, 500 mg BID oral monotherapy (Part 1A), C1D15, n = 1, read-out: AUCtau): 12500 ng·h/mL | Cmax ([1]; 500 mg, 500 mg BID oral monotherapy (Part 1A), C1D15 post multiple doses, geometric mean): 1760 ng/mL | Tmax ([1]; 500 mg, 500 mg BID oral monotherapy (Part 1A), C1D15 post multiple doses, median, read-out: Tmax): 4 h | Tmax ([1]; following oral dose administration, across cohorts (100 to 500 mg BID), read-out: median Tmax values): 1 to 4 h | concentration at 15 day ([1]; 100 mg BID oral monotherapy (Part 1A), C1D15, geometric mean, read-out: Cmin): 231 ng/mL | SGI ([2]; 100 nM single agent): 9% | SGI ([2]; 300 nM single agent): 16% and 26% and 20% | SGI ([2]; 1000 nM single agent): 52% | SGI ([3]; 100 nM single agent): 27% | SGI ([3]; 300 nM single agent): 38; 38% | SGI ([3]; 1000 nM single agent): 53%
